Patent US3954780A, “Propionic acid derivatives” (Innothera, priority 1970, dated 1976)
≈ marks a conversion by molar mass, not a printed value. Where “and” joins values, the source holds several entries; their conditions need not be identical. Identical values can stand only once. Counter-ions that a name gives are not always drawn.

What was measured:
isolated rat duodenum = test: Spasmolytic activity of papaverinic type, barium chloride contracture; settings: Tyrode 38°; for EC50: read-out: Spasmolytic activity Papaverinic type DE 50 (converted)
Method: a. To show activity of the papaverinic type, the contracturant used is barium chloride acting on the isolated rat duodenum.
The average activity of the substances studied has been effected by determining graphically their DE 30 and DE 50 these being expressed in μg for 20 ml of bath.

[1] = test system: isolated ileum of the guinea-pig; test: Spasmolytic activity of atropinic type, acetylcholine chloride contracture; settings: Tyrode 33°; for EC50: Cavia porcellus, read-out: Spasmolytic activity Atropinic type DE 50 (converted)
Excerpt: b. To show activity of atropinic type the contracturant used is acetylcholine chloride acting on the isolated ileum of the guinea-pig. […]

skin reflex = test: Local anaesthetic activity, conduction anaesthesia (method of Moukhtar); type: in vivo; settings: procaine hydrochloride 0.50 g/100 ml, intradermal 0.20 ml; hydrochloride
Excerpt: The method of MOUKHTAR has been chosen to show the activity of the derivatives studied on conduction anaesthesia (A. MOUKHTAR, C.R. Soc. Biol. 1909-66-187,189).
The reference local anaesthetic substance used in the tests has in each case been procaine hydrochloride in 0.5% solution in an 0.9% isotonic solution of NaCl. The three concentrations used to study the local anaesthetic activity of the new derivatives are 0.50, 0.25 and 0.10%, the vehicle being the isotonic 0.9% solution of NaCl.
The average anaesthetic activity of the substances chosen is expressed comparatively to that of the reference product chosen, by calculating the ratio of the average number n of the stimulations necessary to obtain the appearance of the skin reflex in the case of the derivatives studied, to the average number (n') of the stimulation determined for the reference substance.
The procaine hydrochloride and the derivatives studied are administered by the intradermal route at the rate of 0.20 ml per injection.

Row | Structure (SMILES) | EC50 (isolated rat duodenum) [µg/mL] | EC50 [1] [µg/mL] | Spasmolytic activity Papaverinic type DE 30 (isolated rat duodenum) | Spasmolytic activity Atropinic type DE 30 [1] | average number of stimulations for procaine hydrochloride n' (skin reflex)
1 | C=CCC(Cc1csc2ccccc12)C(=O)OCCN(CC)CC (stereo not shown) [Compound 1] | 0.125 (≈ 0.362 µM) | – | 3.7 μg for 20 ml of bath | – | –
2 | O=C(OCCCN1CCCCC1)C(Cc1cccs1)Cc1csc2ccccc12 (stereo not shown) [Compound 44] | 0.4 (≈ 0.935 µM) | 3.5 (≈ 8.18 µM) | 5.5 μg for 20 ml of bath | 30 μg/20 ml of bath | –
3 | C=CCC(Cc1csc2ccccc12)C(=O)OCCCN1CCCCCC1 (stereo not shown) [Compound 10] | 0.65 (≈ 1.69 µM) | – | 7.2 μg for 20 ml of bath | – | –
4 | CCN(CC)CCOC(=O)C(Cc1csc2ccccc12)CC1CCCO1 (stereo not shown) [Compound 48] | 1.25 (≈ 3.21 µM) | 0.9 (≈ 2.31 µM) | 6.0 μg for 20 ml of bath | 10 μg/20 ml of bath | –
5 | O=C(OCCCN1CCCC1)C(Cc1ccccc1)Cc1csc2ccccc12 (stereo not shown) [Compound 31] | 1.4 (≈ 3.43 µM) | 3.25 (≈ 7.97 µM) | 16.0 μg for 20 ml of bath | 40 μg/20 ml of bath | –
6 | C=CCC(Cc1csc2ccccc12)C(=O)OCCCN1CCCCC1 (stereo not shown) [Compound 9] | 1 (≈ 2.69 µM) | – | 13.0 μg for 20 ml of bath | – | –
7 | CN(C)CCCOC(=O)C(Cc1csc2ccccc12)CC1CCCO1 (stereo not shown) [Compound 52] | 0.7 (≈ 1.86 µM) | – | 8.0 μg for 20 ml of bath | – | –
8 | CC(CN1CCCC1)OC(=O)C(Cc1cccs1)Cc1csc2ccccc12 (stereo not shown) [Compound 46] | 0.5 (≈ 1.21 µM) | 0.9 (≈ 2.18 µM) | 2.5 μg for 20 ml of bath | 6.5 μg/20 ml of bath | –
9 | CN(C)CCCOC(=O)C(Cc1cccs1)Cc1csc2ccccc12 (stereo not shown) [Compound 41] | 0.525 (≈ 1.35 µM) | 2.3 (≈ 5.93 µM) | 4.3 μg for 20 ml of bath | 24 μg/20 ml of bath | –
10 | CN(C)CCOC(=O)C(Cc1csc2ccccc12)CC1CCCO1 (stereo not shown) [Compound 47] | 0.75 (≈ 2.07 µM) | – | 9.0 μg for 20 ml of bath | – | –
11 | CC(CN1CCCC1)OC(=O)C(Cc1ccccc1)Cc1csc2ccccc12 (stereo not shown) [Compound 34] | 0.8 (≈ 1.96 µM) | – | 8.0 μg for 20 ml of bath | – | –
12 | O=C(OCCCN1CCCCCC1)C(Cc1cccs1)Cc1csc2ccccc12 (stereo not shown) [Compound 45] | 1.35 (≈ 3.06 µM) | – | 14.0 μg for 20 ml of bath | – | –
13 | O=C(OCCN1CCOCC1)C(Cc1cccs1)Cc1csc2ccccc12 (stereo not shown) [Compound 39] | 4 (≈ 9.63 µM) | – | 43.0 μg for 20 ml of bath | – | –
14 | CCN(CC)CCOC(=O)C(Cc1cccs1)Cc1csc2ccccc12 (stereo not shown) [Compound 36] | 1 (≈ 2.49 µM) | 1.4 (≈ 3.49 µM) | 8.5 μg for 20 ml of bath | 14 μg/20 ml of bath | –
15 | O=C(OCCN1CCCCCC1)C(Cc1ccccc1)Cc1csc2ccccc12 (stereo not shown) [Compound 28] | 0.7 (≈ 1.66 µM) | 250 (≈ 593 µM) | 6.5 μg for 20 ml of bath | 750 μg/20 ml of bath | –
16 | O=C(OCCCN1CCCCC1)C(Cc1ccccc1)Cc1csc2ccccc12 (stereo not shown) [Compound 32] | 0.475 (≈ 1.13 µM) | – | 4.5 μg for 20 ml of bath | – | –
17 | C=CCC(Cc1csc2ccccc12)C(=O)OCCN1CCCC1 (stereo not shown) [Compound 2] | 1.15 (≈ 3.35 µM) | – | 12.0 μg for 20 ml of bath | – | –
18 | CN1C2CCC1CC(OC(=O)C(CO)c1ccccc1)C2 (stereo not shown) [atropine sulphate, reference compound] | – | ≤ 0.005 | – | – | –
19 | O=C(OCCCN1CCCCCC1)C(Cc1csc2ccccc12)CC1CCCO1 (stereo not shown) [Compound 56] | 0.8 (≈ 1.86 µM) | – | 10.0 μg for 20 ml of bath | – | –
20 | C=CCC(Cc1csc2ccccc12)C(=O)OCCCN1CCCC1 (stereo not shown) [Compound 8] | 4 (≈ 11.2 µM) | 4.5 (≈ 12.6 µM) | 42.0 μg for 20 ml of bath | 55 μg/20 ml of bath | –
21 | O=C(OCCN1CCCCC1)C(Cc1ccccc1)Cc1csc2ccccc12 (stereo not shown) [Compound 27] | 0.6 (≈ 1.47 µM) | – | 6.0 μg for 20 ml of bath | – | –
22 | O=C(OCCN1CCCCC1)C(Cc1cccs1)Cc1csc2ccccc12 (stereo not shown) [Compound 38] | 0.8 (≈ 1.93 µM) | 10 (≈ 24.2 µM) | 6.0 μg for 20 ml of bath | 95 μg/20 ml of bath | –
23 | C=CCC(Cc1csc2ccccc12)C(=O)OCCN1CCCCC1 (stereo not shown) [Compound 3] | 2 (≈ 5.59 µM) | – | 18.0 μg for 20 ml of bath | – | –
24 | CCN(CC)CCOC(=O)c1ccc(N)cc1 [procaine hydrochloride, reference compound] | – | – | – | – | 30.5 and 33.9 and 36.0 and 27.2 and 29.5 and 29.2 and 33.7 and 28.2
25 | O=C(OCCN1CCCC1)C(Cc1ccccc1)Cc1csc2ccccc12 (stereo not shown) [Compound 26] | 0.6 (≈ 1.52 µM) | 7 (≈ 17.8 µM) | 5.5 μg for 20 ml of bath | 50 μg/20 ml of bath | –
26 | O=C(OCCCN1CCCCCC1)C(Cc1ccccc1)Cc1csc2ccccc12 (stereo not shown) [Compound 33] | 0.425 (≈ 0.976 µM) | – | 4.0 μg for 20 ml of bath | – | –

Now from value to compound, other results behind:

Row | EC50 (isolated rat duodenum) [µg/mL] | EC50 [1] [µg/mL] | Structure (SMILES) | Spasmolytic activity Papaverinic type DE 30 (isolated rat duodenum) | Spasmolytic activity Atropinic type DE 30 [1] | average number of stimulations for procaine hydrochloride n' (skin reflex)
27 | 0.95 (≈ 2.33 µM) | 4 (≈ 9.81 µM) | O=C(OCCCN1CCCCC1)C(Cc1csc2ccccc12)c1ccccc1 (stereo not shown) [Compound 21] | 8.0 μg for 20 ml of bath | 40 μg/20 ml of bath | –
28 | 1.25 (≈ 3.4 µM) | 10 (≈ 27.2 µM) | CN(C)CCOC(=O)C(Cc1ccccc1)Cc1csc2ccccc12 (stereo not shown) [Compound 24] | 10.0 μg for 20 ml of bath | 90 μg/20 ml of bath | –
29 | 0.425 (≈ 1.11 µM) | 5 (≈ 13.1 µM) | CN(C)CCCOC(=O)C(Cc1ccccc1)Cc1csc2ccccc12 (stereo not shown) [Compound 29] | 4.0 μg for 20 ml of bath | 45 μg/20 ml of bath | –
30 | 3.5 (≈ 8.89 µM) | 2.25 (≈ 5.72 µM) | O=C(OCCN1CCCCC1)C(Cc1csc2ccccc12)c1ccccc1 (stereo not shown) [Compound 15] | 45.0 μg for 20 ml of bath | 26 μg/20 ml of bath | –
31 | 2.5 (≈ 7.07 µM) | 5 (≈ 14.1 µM) | CN(C)CCOC(=O)C(Cc1csc2ccccc12)c1ccccc1 (stereo not shown) [Compound 12] | 24.0 μg for 20 ml of bath | 50 μg/20 ml of bath | –
32 | 0.8 (≈ 1.9 µM) | – | O=C(OCCCN1CCCCCC1)C(Cc1csc2ccccc12)c1ccccc1 (stereo not shown) [Compound 22] | 7.0 μg for 20 ml of bath | – | –
33 | 1.75 (≈ 4.61 µM) | 7 (≈ 18.4 µM) | O=C(OCCN1CCCC1)C(Cc1csc2ccccc12)c1ccccc1 (stereo not shown) [Compound 14] | 18.0 μg for 20 ml of bath | 90 μg/20 ml of bath | –
34 | 1 (≈ 2.72 µM) | 1.75 (≈ 4.76 µM) | CN(C)CCCOC(=O)C(Cc1csc2ccccc12)c1ccccc1 (stereo not shown) [Compound 18] | 8.0 μg for 20 ml of bath | 22 μg/20 ml of bath | –
35 | 5.5 (≈ 13.9 µM) | 22.5 (≈ 56.9 µM) | O=C(OCCN1CCOCC1)C(Cc1csc2ccccc12)c1ccccc1 (stereo not shown) [Compound 16] | 38.0 μg for 20 ml of bath | 225 μg/20 ml of bath | –
36 | 2.25 | 2.1 | CCN(CC)CCOC(=O)C(Cc1csc2ccccc12)c1ccccc1 (stereo not drawn) [Compound 13, N,N-diethylamino ethyl ester of α-phenyl-β-[(benzo(b)thienyl-3]propionic acid and its oxalate] | 13.0 μg for 20 ml of bath | 30 μg/20 ml of bath | –
37 | 0.95 (≈ 2.41 µM) | 2.75 (≈ 6.99 µM) | O=C(OCCCN1CCCC1)C(Cc1csc2ccccc12)c1ccccc1 (stereo not shown) [Compound 20] | 8.0 μg for 20 ml of bath | 25 μg/20 ml of bath | –
38 | 0.65 (≈ 1.59 µM) | – | CCN(CC)CCCOC(=O)C(Cc1ccccc1)Cc1csc2ccccc12 (stereo not shown) [Compound 30] | 6.0 μg for 20 ml of bath | – | –
39 | 0.9 (≈ 2.28 µM) | 6 (≈ 15.2 µM) | CCN(CC)CCOC(=O)C(Cc1ccccc1)Cc1csc2ccccc12 (stereo not shown) [Compound 25] | 9.0 μg for 20 ml of bath | 60 μg/20 ml of bath | –
40 | 0.35 (≈ 0.859 µM) | 7 (≈ 17.2 µM) | CC(CN1CCCCC1)OC(=O)C(Cc1csc2ccccc12)c1ccccc1 (stereo not shown) [Compound 23] | 3.1 μg for 20 ml of bath | 50 μg/20 ml of bath | –
41 | 1.25 (≈ 3.16 µM) | – | CCN(CC)CCCOC(=O)C(Cc1csc2ccccc12)c1ccccc1 (stereo not shown) [Compound 19] | 11.5 μg for 20 ml of bath | – | –
